The values below come from patent US10934298B2, “Substituted pyrazolo[1,5-a]pyrimidines for the treatment of medical disorders” (BIAL—BioTech Investments, Inc., priority 2016, dated 2021).

For this test, the target named is T1, glucocerebrosidase (Gcase) (Homo sapiens, UniProt P04062).
T1 construct: micellar solution containing 10 nM GCase and 100 nM saposin C
T1 sequence (P04062 40-536): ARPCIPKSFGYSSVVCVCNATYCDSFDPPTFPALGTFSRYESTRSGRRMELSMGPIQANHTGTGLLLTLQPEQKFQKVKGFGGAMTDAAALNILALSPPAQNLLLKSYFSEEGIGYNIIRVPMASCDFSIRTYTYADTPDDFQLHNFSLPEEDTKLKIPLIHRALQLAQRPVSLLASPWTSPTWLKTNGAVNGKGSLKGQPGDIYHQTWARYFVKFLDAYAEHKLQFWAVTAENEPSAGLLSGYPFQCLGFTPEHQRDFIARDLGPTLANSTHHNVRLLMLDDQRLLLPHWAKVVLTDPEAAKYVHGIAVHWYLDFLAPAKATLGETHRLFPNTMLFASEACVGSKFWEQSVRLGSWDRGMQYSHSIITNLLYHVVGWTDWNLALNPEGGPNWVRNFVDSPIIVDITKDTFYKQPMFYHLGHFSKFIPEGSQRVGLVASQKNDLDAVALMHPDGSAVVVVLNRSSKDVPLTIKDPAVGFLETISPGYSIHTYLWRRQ
The experiment in a line: Glucocerebrosidase (Gcase) activation assay with 4-methylumbelliferyl-beta-D-glucopyranoside substrate, saposin C and phosphatidylserine/triton micelles, fluorescence readout. Type of test: biochemical. The gist of the method:
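10 nM GCase with 100 nM saposin C pre-incubated 30 min with compound in pH 4.7 phosphate/citrate PS/triton micelles, then mixed 1:1 with 2 mM 4-methylumbelliferyl-β-glucoside micellar substrate (stock level). Run 15 min at room temperature, stopped at pH 12.5; fluorescence 365/440 nm. Screened at 1.0 and 0.1 μM; 8-point curves from 5 μM.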

Consider `Cc1cc(-c2ccoc2)nc2c(C(=O)N[C@H](C)C(F)(F)F)cnn12` [III-337], for which the “Percent Gcase Activation, 0.1 μM Test Compound” value was “*** (greater than 20% Gcase activation)” and the “Percent Gcase Activation, 1 μM Test Compound” value is “+++ (Gcase activation greater than 60%)”.
For `Cc1cc(-c2cc(C)n3ncc(C(=O)N[C@H](C)C(F)(F)F)c3n2)co1` [III-338], in that order: “*** (greater than 20% Gcase activation)” and “+++ (Gcase activation greater than 60%)”.
Consider `Cc1cc(-c2cc(C)n3ncc(C(=O)N[C@@H](C)C(F)(F)F)c3n2)co1` [III-339], for which the “Percent Gcase Activation, 0.1 μM Test Compound” value is “*** (greater than 20% Gcase activation)” and the “Percent Gcase Activation, 1 μM Test Compound” value is “+++ (Gcase activation greater than 60%)”.
As for `Cc1occc1-c1cc(C)n2ncc(C(=O)N[C@H](C)C(F)(F)F)c2n1` [III-340], the “Percent Gcase Activation, 0.1 μM Test Compound” value is reported as “*** (greater than 20% Gcase activation)” and the “Percent Gcase Activation, 1 μM Test Compound” value is reported as “+++ (Gcase activation greater than 60%)”.
In the case of `Cc1cc(-c2cc(C)n3ncc(C(=O)N[C@H](C4CC4)C(F)(F)F)c3n2)no1` [III-341], the “Percent Gcase Activation, 0.1 μM Test Compound” value is reported as “*** (greater than 20% Gcase activation)” and the “Percent Gcase Activation, 1 μM Test Compound” value is given as “+++ (Gcase activation greater than 60%)”.
In the case of `Cc1conc1-c1cc(C)n2ncc(C(=O)N[C@H](C3CC3)C(F)(F)F)c2n1` [III-342], the “Percent Gcase Activation, 0.1 μM Test Compound” value is “*** (greater than 20% Gcase activation)” and the “Percent Gcase Activation, 1 μM Test Compound” value is listed as “+++ (Gcase activation greater than 60%)”.
For `Cc1cc(-c2cc(C)n3ncc(C(=O)N[C@H](C4CC4)C(F)(F)F)c3n2)on1` [III-343], in that order: “*** (greater than 20% Gcase activation)” and “+++ (Gcase activation greater than 60%)”.
As for `Cc1cnoc1-c1cc(C)n2ncc(C(=O)N[C@H](C3CC3)C(F)(F)F)c2n1` [III-344], the “Percent Gcase Activation, 0.1 μM Test Compound” value is recorded as “*** (greater than 20% Gcase activation)” and the “Percent Gcase Activation, 1 μM Test Compound” value was “+++ (Gcase activation greater than 60%)”.
For the compound `Cc1nc(-c2cc(C)n3ncc(C(=O)N[C@H](C)C(F)(F)F)c3n2)oc1C` [III-345], the “Percent Gcase Activation, 0.1 μM Test Compound” value is given as “** (Gcase activation in the range of 10% up to 20%)” and the “Percent Gcase Activation, 1 μM Test Compound” value is reported as “+++ (Gcase activation greater than 60%)”.
Take `Cc1cc(-c2cc(C)n3ncc(C(=O)N[C@@H](C)C4CC4)c3n2)sn1` [III-346]: the “Percent Gcase Activation, 0.1 μM Test Compound” value is listed as “** (Gcase activation in the range of 10% up to 20%)” and the “Percent Gcase Activation, 1 μM Test Compound” value is “+++ (Gcase activation greater than 60%)”.
For `Cc1cc(C#N)c(-c2cc(C)n3ncc(C(=O)N[C@H](C)C(F)(F)F)c3n2)s1` [III-347], in that order: “*** (greater than 20% Gcase activation)” and “+++ (Gcase activation greater than 60%)”.
For `Cc1cc(C#N)c(-c2cc(C)n3ncc(C(=O)N[C@@H](C)C(F)(F)F)c3n2)s1` [III-348], in that order: “*** (greater than 20% Gcase activation)” and “+++ (Gcase activation greater than 60%)”.
With `Cc1cc(-c2cc(F)ccc2C#N)nc2c(C(=O)N[C@H](C)C(F)(F)F)cnn12` [III-349], the “Percent Gcase Activation, 0.1 μM Test Compound” value is given as “*** (greater than 20% Gcase activation)” and the “Percent Gcase Activation, 1 μM Test Compound” value is given as “++ (Gcase activation in the range of 30% up to 60%)”.
Turning to `Cc1cc(-c2cc(F)ccc2C#N)nc2c(C(=O)N[C@@H](C)C(F)(F)F)cnn12` [III-350], the “Percent Gcase Activation, 0.1 μM Test Compound” value is “*** (greater than 20% Gcase activation)” and the “Percent Gcase Activation, 1 μM Test Compound” value is reported as “+++ (Gcase activation greater than 60%)”.
For the compound `Cc1cc(-c2cc(C#N)ccc2F)nc2c(C(=O)N[C@H](C)C(F)(F)F)cnn12` [III-351], the “Percent Gcase Activation, 0.1 μM Test Compound” value is on record as “** (Gcase activation in the range of 10% up to 20%)” and the “Percent Gcase Activation, 1 μM Test Compound” value is recorded as “+++ (Gcase activation greater than 60%)”.
For `Cc1cc(-c2cc(C#N)ccc2F)nc2c(C(=O)N[C@@H](C)C(F)(F)F)cnn12` [III-352], in that order: “** (Gcase activation in the range of 10% up to 20%)” and “+++ (Gcase activation greater than 60%)”.
On to `Cc1cc(-c2cnccc2C(F)(F)F)nc2c(C(=O)N[C@H](C3CC3)C(F)(F)F)cnn12` [III-353], for which the “Percent Gcase Activation, 0.1 μM Test Compound” value is given as “*** (greater than 20% Gcase activation)” and the “Percent Gcase Activation, 1 μM Test Compound” value is on record as “+++ (Gcase activation greater than 60%)”.
For `Cc1cc(-c2cnccc2C(F)(F)F)nc2c(C(=O)N[C@@H](C3CC3)C(F)(F)F)cnn12` [III-354], in that order: “*** (greater than 20% Gcase activation)” and “+++ (Gcase activation greater than 60%)”.
In the case of `Cc1cc(-c2cccnc2C(F)(F)F)nc2c(C(=O)N[C@H](C3CC3)C(F)(F)F)cnn12` [III-355], the “Percent Gcase Activation, 0.1 μM Test Compound” value is “*** (greater than 20% Gcase activation)” and the “Percent Gcase Activation, 1 μM Test Compound” value is given as “+++ (Gcase activation greater than 60%)”.
As for `Cc1cc(-c2cccnc2C(F)(F)F)nc2c(C(=O)N[C@@H](C3CC3)C(F)(F)F)cnn12` [III-356], the “Percent Gcase Activation, 0.1 μM Test Compound” value was “*** (greater than 20% Gcase activation)” and the “Percent Gcase Activation, 1 μM Test Compound” value is “+++ (Gcase activation greater than 60%)”.
`Cc1cc(N2CC(C)(C)N(C)C2=O)nc2c(C(=O)N[C@H](C3CC3)C(F)(F)F)cnn12` [III-357]: the “Percent Gcase Activation, 0.1 μM Test Compound” value was “** (Gcase activation in the range of 10% up to 20%)” and the “Percent Gcase Activation, 1 μM Test Compound” value is listed as “+++ (Gcase activation greater than 60%)”.
As to `Cc1cc(N2CC(C)(C)OC2=O)nc2c(C(=O)N[C@H](C3CC3)C(F)(F)F)cnn12` [III-358], the “Percent Gcase Activation, 0.1 μM Test Compound” value is reported as “* (less than 10% Gcase activation)” and the “Percent Gcase Activation, 1 μM Test Compound” value is reported as “++ (Gcase activation in the range of 30% up to 60%)”.
Regarding `Cc1cc(-c2ccc(F)cc2)nc2c(C(=O)N[C@H](C)C(F)(F)F)cnn12` [III-359], the “Percent Gcase Activation, 0.1 μM Test Compound” value is listed as “** (Gcase activation in the range of 10% up to 20%)” and the “Percent Gcase Activation, 1 μM Test Compound” value was “+++ (Gcase activation greater than 60%)”.
Take `Cc1cc(-c2ccc(F)cc2)nc2c(C(=O)N[C@@H](C)C(F)(F)F)cnn12` [III-360]: the “Percent Gcase Activation, 0.1 μM Test Compound” value is given as “*** (greater than 20% Gcase activation)” and the “Percent Gcase Activation, 1 μM Test Compound” value is reported as “+++ (Gcase activation greater than 60%)”.
For `Cc1cc(-c2cccc(F)c2)nc2c(C(=O)N[C@H](C)C(F)(F)F)cnn12` [III-361], in that order: “*** (greater than 20% Gcase activation)” and “+++ (Gcase activation greater than 60%)”.
On to `Cc1cc(-c2cccc(F)c2)nc2c(C(=O)N[C@@H](C)C(F)(F)F)cnn12` [III-362], for which the “Percent Gcase Activation, 0.1 μM Test Compound” value is reported as “*** (greater than 20% Gcase activation)” and the “Percent Gcase Activation, 1 μM Test Compound” value is “+++ (Gcase activation greater than 60%)”.
Regarding `Cc1cc(-c2cncc(C#N)c2)nc2c(C(=O)N[C@H](C3CC3)C(F)(F)F)cnn12` [III-363], the “Percent Gcase Activation, 0.1 μM Test Compound” value is “*** (greater than 20% Gcase activation)” and the “Percent Gcase Activation, 1 μM Test Compound” value is recorded as “+++ (Gcase activation greater than 60%)”.
Consider `Cc1cc(-c2cncc(C#N)c2)nc2c(C(=O)N[C@@H](C3CC3)C(F)(F)F)cnn12` [III-364], for which the “Percent Gcase Activation, 0.1 μM Test Compound” value is reported as “** (Gcase activation in the range of 10% up to 20%)” and the “Percent Gcase Activation, 1 μM Test Compound” value is “+++ (Gcase activation greater than 60%)”.
As to `Cc1cc(-c2cccnc2C#N)nc2c(C(=O)N[C@H](C3CC3)C(F)(F)F)cnn12` [III-365], the “Percent Gcase Activation, 0.1 μM Test Compound” value is “** (Gcase activation in the range of 10% up to 20%)” and the “Percent Gcase Activation, 1 μM Test Compound” value is given as “+++ (Gcase activation greater than 60%)”.
For `Cc1cc(-c2cccnc2C#N)nc2c(C(=O)N[C@@H](C3CC3)C(F)(F)F)cnn12` [III-366], in that order: “*** (greater than 20% Gcase activation)” and “+++ (Gcase activation greater than 60%)”.
In the case of `Cc1cc(-c2ccc(C#N)nc2)nc2c(C(=O)N[C@H](C3CC3)C(F)(F)F)cnn12` [III-367], the “Percent Gcase Activation, 0.1 μM Test Compound” value is listed as “** (Gcase activation in the range of 10% up to 20%)” and the “Percent Gcase Activation, 1 μM Test Compound” value was “+++ (Gcase activation greater than 60%)”.
For `Cc1cc(-c2ccc(C#N)nc2)nc2c(C(=O)N[C@@H](C3CC3)C(F)(F)F)cnn12` [III-368], the “Percent Gcase Activation, 0.1 μM Test Compound” value is “** (Gcase activation in the range of 10% up to 20%)” and the “Percent Gcase Activation, 1 μM Test Compound” value is “+++ (Gcase activation greater than 60%)”.
For `Cc1cc(-c2cncc(C#N)c2)nc2c(C(=O)NC(C)(C)C3CC3)cnn12` [III-369], in that order: “** (Gcase activation in the range of 10% up to 20%)” and “+++ (Gcase activation greater than 60%)”.
